Assay results from paper PMC8261254 (Asian Journal of Pharmaceutical Sciences, 2021).
Converted amounts (≈) assume the structure as drawn. Like-named read-outs stand apart in the source and are kept apart here.

How the values were obtained:
[1] = cited from earlier work
[2] = PTX solubility in PLHNs / water; type: physicochemical

## CC(=O)O[C@H]1C(=O)[C@@]2(C)[C@H]([C@H](OC(=O)c3ccccc3)[C@]3(O)C[C@H](OC(=O)[C@H](O)[C@@H](NC(=O)c4ccccc4)c4ccccc4)C(C)=C1C3(C)C)[C@]1(OC(C)=O)CO[C@@H]1C[C@@H]2O [PTX, Paclitaxel]
[1]
  Plasma concentration threshold above which PTX is pharmacologically active: 0.1 µM
[1]; equivalent of 0.1 µM
  Plasma concentration threshold above which PTX is pharmacologically active: 85.3 ng/ml
[2]
  solubility: ~6 µg/mL (≈ 7.03 µM)
